Test results from US20080262081A1, “Novel Use of Nutraceutical Compositions Comprising Resveratrol” (priority 2005, published 2008).

Tested on: phosphorylated p70S6K (Thr389)
Experiment: Phosphorylated p70S6K (Thr389) level in insulin-stimulated C3H10T1/2 cells (Western blot)
Type: cell-based, Mouse
Design: key to Phosphorylated p70S6K (Thr389) level, % vs. Vehicle: *: under detectable level
Conditions: for Phosphorylated p70S6K (Thr389) level, % vs. Vehicle: vehicle = 100%
Protocol: Mouse embryonic mesenchymal stem cells, C3H10T1/2 cells, (ATCC, USA, #CCL-226), were cultured in DMEM (low glucose […], Gibco), supplemented with 10% FBS and 2 mM L-Glutamine (Gibco). 2×10^5 cells /well were seeded in 6-well plate and grown to 80% confluency. Cells were treated with either rapamycin (Tocris, UK, #1292) at 100 nM, EGCG (TEAVIGO®, DSM Nutritional Product ltd. Switzerland) at 10 microM , resveratrol (DSM Nutritional Products Ltd. Switzerland) at 0.1, 1, 10 μM or combination of EGCG (10 microM) and resveratrol (0.1,1, 10 μM) for 30 min, then stimulated with insulin (Sigma, Switzerland) at 100 nM for 30 min. Cells were washed twice with PBS and harvested in 0.4 ml NETT buffer (0.1 M NaCl, 10 mM Tris-HCL (pH 7.6), 1 mM EDTA, 1% Triton X-100, pH 7.6 ). Cell lysates were sonicated and centrifuged at 14,000 rpm for 2 min. Protein concentration was determined using BCA assay (PIERCE, USA #23223). 10 microgram whole cell extracts were loaded on SDS-gel (10-20% Tricine gradient gel) and blotted on nitrocellulose membrane (0.2 μm pore, Invitrogen, #LC2000 ). Blot was incubated first with monoclonal antibody, phosphor-p70 S6 Kinase (Thr389)(1A5) mouse mAb (Cell signaling technology, #9206) at 1:2000 dilution, then with secondary antibody, goat anti-mouse IgG HRP (Santa Cruz, USA, #SC2055) at 1:10000. Protein load was control by measuring β-actin using anti mouse β-actin (Sigma, Switzerland, #A-5441). The signals were detected using ECL plus Western Blotting Detection System (Amersham Biosciences; RPN2132). Membrane was exposed to X-ray film for 30′ (Hyperfilm ECL; High performance chemiluminescence film, Amersham Biosciences; RPN1674 ) and films were scanned with ChemiGenius 2 machine (Syngene, UK). The signals were quantified by using GeneTools software (Syngene, UK). Signal of phosphorylated p70S6K was normalized to the protein load control β-actin, and vehicle was set up as 100%.

[1] = 10 μM single agent, insulin 100 nM

Molecule	Phosphorylated p70S6K (Thr389) level, % vs. Vehicle (0.1 μM single agent, insulin 100 nM)	Phosphorylated p70S6K (Thr389) level, % vs. Vehicle (1 μM single agent, insulin 100 nM)	Phosphorylated p70S6K (Thr389) level, % vs. Vehicle [1]	effect on phosphorylated p70S6K (Thr389) amount (in words) (0.1, 1 and 10 microM)	effect on phosphorylated p70S6K (Thr389) amount (in words) (10 microM)	Phosphorylated p70S6K (Thr389) level, % vs. Vehicle (100 nM, 30 min pretreatment then insulin 100 nM 30 min, normalized to β-actin)
Oc1ccc(C=Cc2cc(O)cc(O)c2)cc1 [Resveratrol, resveratrol]	95.23%	106.9157%	132.715%	no influence		
(−)-epigallocatechin gallate [EGCG]			117.20%		little effect	
CO[C@H]1C[C@@H]2CC[C@@H](C)[C@@](O)(O2)C(=O)C(=O)N2CCCC[C@H]2C(=O)O[C@H]([C@H](C)C[C@@H]2CC[C@@H](O)[C@H](OC)C2)CC(=O)[C@H](C)/C=C(\C)[C@@H](O)[C@@H](OC)C(=O)[C@H](C)C[C@H](C)/C=C/C=C/C=C/1C [Rapa, rapamycin, reference compound]						*
